For 19 compounds, Emax and EC50 results are on record in patent US10208019B2, “GLP-1 receptor agonists and uses thereof” (Pfizer Inc., priority 2016, dated 2019).

The structures appear in SMILES notation. Counter-ions that a name gives are not always drawn. Like-named read-outs stand apart in the source and are kept apart here.

Experiment [1] addresses human GLP-1R (Homo sapiens (Human), UniProt P43220, L260F). The experiment in a line: CHO GLP-1R Clone C6—Assay 2: HTRF cAMP cell-based functional agonist assay (low GLP-1R density). Conditions: for Emax: read-out: Assay 2 Emax (%); for EC50: CHO GLP-1R Clone C6, cAMP HTRF, geometric mean. (In general: TR-FRET usually uses a lanthanide donor and a delayed reading to cut background.)

The target in experiment [2] is human GLP-1R (Homo sapiens, UniProt P43220, G168S). The experiment in a line: CHO GLP-1R Clone H6—Assay 1: HTRF cAMP cell-based functional agonist assay (high GLP-1R density). The settings on record: for EC50: CHO GLP-1R Clone H6, cAMP HTRF, geometric mean.
Sequence of human GLP-1R (Homo sapiens, UniProt P43220, G168S) (P43220 24-463 G168S limits assumed): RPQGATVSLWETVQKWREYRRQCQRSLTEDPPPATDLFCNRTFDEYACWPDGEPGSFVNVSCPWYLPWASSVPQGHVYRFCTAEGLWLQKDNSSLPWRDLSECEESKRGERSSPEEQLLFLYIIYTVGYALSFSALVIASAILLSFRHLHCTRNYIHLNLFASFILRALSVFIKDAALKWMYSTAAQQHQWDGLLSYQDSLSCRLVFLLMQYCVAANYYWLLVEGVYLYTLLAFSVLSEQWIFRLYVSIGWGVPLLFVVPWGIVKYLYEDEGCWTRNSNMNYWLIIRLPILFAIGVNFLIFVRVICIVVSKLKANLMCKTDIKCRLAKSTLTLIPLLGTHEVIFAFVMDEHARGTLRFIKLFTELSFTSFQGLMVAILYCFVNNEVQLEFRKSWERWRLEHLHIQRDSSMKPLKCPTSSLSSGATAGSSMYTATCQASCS
Where [3] appears, read: CHO GLP-1R Clone C6, relative to saturating concentration of full agonist GLP-1 (1 μM), arithmetic mean.
Where [4] appears, read: read-out: Assay 1 Emax (%), CHO GLP-1R Clone H6, relative to saturating concentration of full agonist GLP-1 (1 μM), arithmetic mean.

Sequence of human GLP-1R (Homo sapiens (Human), UniProt P43220, L260F) (P43220 24-463 L260F): as the sequence (P43220 24-463 G168S limits assumed) above, with S145G, L237F counted along it

Broadly, the Emax is the maximal effect, on the per cent scale that the assay sets. Take `COCCn1c(CN2CCN(c3nc(OCc4ccc(Cl)cc4F)ccc3F)CC2)nc2ccc(C(=O)O)cc21` [Example 1A-05, 2-[(4-{6-[(4-chloro-2-fluorobenzyl)oxy]-3-fluoropyridin-2-yl}piperazin-1-yl)methyl]-1-(2-methoxyethyl)-1H-benzimidazole-6-carboxylic acid]: the maximum response (Emax) in experiment [1] (setting [3]) worked out at 67%; in experiment [2] (setting [4]), 75%.
One may read the EC50 as the midpoint of the concentration-response curve. In the case of `COCCn1c(CN2CCN(c3nc(OCc4ccc(Cl)cc4F)ccc3F)C[C@@H]2C)nc2ccc(C(=O)O)cc21` [Example 1A-06, 2-{[(2S)-4-{6-[(4-chloro-2-fluorobenzyl)oxy]-3-fluoropyridin-2-yl}-2-methylpiperazin-1-yl]methyl}-1-(2-methoxyethyl)-1H-benzimidazole-6-carboxylic acid], the EC50 was found to be 350 nM in experiment [1] and 29 nM in experiment [2] (read-out: Assay 1 EC50). Besides, the results for the maximal effect (Emax) in experiment [1] (setting [3]) and in experiment [2] (setting [4]) were 70% and 84%, respectively.
In the same order, the values of `COCCn1c(CN2CCN(c3ccc(F)c(OCc4ccc(Cl)cc4F)n3)C[C@@H]2C)nc2ccc(C(=O)O)cc21` [Example 1A-07, 2-{[(2S)-4-{6-[(4-chloro-2-fluorobenzyl)oxy]-5-fluoropyridin-2-yl}-2-methylpiperazin-1-yl]methyl}-1-(2-methoxyethyl)-1H-benzimidazole-6-carboxylic acid] are 45 nM, 3.9 nM, 82% and 82%.
As for `COCCn1c(CN2CCN(c3ccc(F)c(OCc4ccc(C#N)cc4)n3)C[C@@H]2C)nc2ccc(C(=O)O)cc21` [Example 1A-08, 2-{[(2S)-4-{6-[(4-cyanobenzyl)oxy]-5-fluoropyridin-2-yl}-2-methylpiperazin-1-yl]methyl}-1-(2-methoxyethyl)-1H-benzimidazole-6-carboxylic acid], the EC50 in experiment [1] was 120 nM; in experiment [2] (read-out: Assay 1 EC50) it was 7.1 nM. For the same compound, the values for the maximal response (Emax) in experiment [1] (setting [3]) and in experiment [2] (setting [4]) were 85% and 81%, respectively.
With `[2H]C([2H])(Oc1cccc(C2CCN(Cc3nc4ccc(C(=O)O)cc4n3C[C@@H]3CCO3)CC2)n1)c1ccc(C#N)cc1F` [Example 1A-09, 2-{[4-(6-{[(4-cyano-2-fluorophenyl)(methyl-d2)]oxy}pyridin-2-yl)piperidin-1-yl]methyl}-1-[(2S)-oxetan-2-ylmethyl]-1H-benzimidazole-6-carboxylic acid], the Emax in experiment [1] (setting [3]) was 120%; in experiment [2] (setting [4]), 92%.
Take `COCCn1c(CN2CCC(c3cccc(OCc4ccccc4)n3)CC2)nc2ccc(C(=O)O)cc21` [Example 1A-10, 2-({4-[6-(benzyloxy)pyridin-2-yl]piperidin-1-yl}methyl)-1-(2-methoxyethyl)-1H-benzimidazole-6-carboxylic acid]: the half-maximal effective concentration (EC50) in experiment [1] turned out to be 9000 nM; in experiment [2] (read-out: Assay 1 EC50), 930 nM. In addition, the results for the Emax in experiment [1] (setting [3]) and in experiment [2] (setting [4]) were 100% and 86%, respectively.
In the same order, the values of `COCCn1c(CN2CCN(c3cccc(OCc4ccc(C#N)cc4)n3)CC2)nc2ccc(C(=O)O)cc21` [Example 1A-11, 2-[(4-{6-[(4-cyanobenzyl)oxy]pyridin-2-yl}piperazin-1-yl)methyl]-1-(2-methoxyethyl)-1H-benzimidazole-6-carboxylic acid] are 530 nM, 19 nM, 97% and 76%.
Take `COCCn1c(CN2CCN(c3cccc(OCc4ccc(Cl)cc4F)n3)[C@H](C)C2)nc2ccc(C(=O)O)cc21` [Example 1A-14, 2-{[(3R)-4-{6-[(4-chloro-2-fluorobenzyl)oxy]pyridin-2-yl}-3-methylpiperazin-1-yl]methyl}-1-(2-methoxyethyl)-1H-benzimidazole-6-carboxylic acid]: the EC50 in experiment [1] is 1600 nM; in experiment [2] (read-out: Assay 1 EC50) it was 47 nM. For the same compound, the values for the Emax in experiment [1] (setting [3]) and in experiment [2] (setting [4]) were 81% and 71%, respectively.
For the compound `Cn1cncc1Cn1c(CN2CCC(c3cccc(OCc4ccc(C#N)cc4F)n3)CC2)nc2ccc(C(=O)O)cc21` [Example 1A-16, 2-[(4-{6-[(4-cyano-2-fluorobenzyl)oxy]pyridin-2-yl}piperidin-1-yl)methyl]-1-[(1-methyl-1H-imidazol-5-yl)methyl]-1H-benzimidazole-6-carboxylic acid], the half-maximal effective concentration (EC50) in experiment [1] is 14 nM; in experiment [2] (read-out: Assay 1 EC50), 1.5 nM. In addition, the Emax was found to be 82% in experiment [1] (setting [3]) and 86% in experiment [2] (setting [4]).
Turning to `Cn1cncc1Cn1c(CN2CCC(c3cccc(OCc4ccc(F)cc4F)n3)CC2)nc2ccc(C(=O)O)cc21` [Example 1A-17, 2-[(4-{6-[(2,4-difluorobenzyl)oxy]pyridin-2-yl}piperidin-1-yl)methyl]-1-[(1-methyl-1H-imidazol-5-yl)methyl]-1H-benzimidazole-6-carboxylic acid], the concentration for a half-maximal effect (EC50) in experiment [1] amounted to 45 nM; in experiment [2] (read-out: Assay 1 EC50) it was 2.4 nM. Further, the results for the maximal effect (Emax) in experiment [1] (setting [3]) and in experiment [2] (setting [4]) were 95% and 87%, respectively.
With `CCCn1cnnc1Cn1c(CN2CCC(c3cccc(OCc4ccc(Cl)cc4F)n3)CC2)nc2ccc(C(=O)O)cc21` [Example 1A-18, 2-[(4-{6-[(4-chloro-2-fluorobenzyl)oxy]pyridin-2-yl}piperidin-1-yl)methyl]-1-[(4-propyl-4H-1,2,4-triazol-3-yl)methyl]-1H-benzimidazole-6-carboxylic acid], the results for the EC50 in experiment [1] and in experiment [2] (read-out: Assay 1 EC50) were 110 nM and 6.4 nM, respectively. The maximal response (Emax) in experiment [1] (setting [3]) was found to be 94%; in experiment [2] (setting [4]), 90%.
In the case of `C[C@H]1CN(c2cccc(OCc3ccc(Cl)cc3F)n2)CCN1Cc1nc2ccc(C(=O)O)cc2n1C[C@@H]1CCO1` [Example 1A-19, 2-{[(2S)-4-{6-[(4-chloro-2-fluorobenzyl)oxy]pyridin-2-yl}-2-methylpiperazin-1-yl]methyl}-1-[(2S)-oxetan-2-ylmethyl]-1H-benzimidazole-6-carboxylic acid], the EC50 in experiment [1] amounted to 3.2 nM; in experiment [2] (read-out: Assay 1 EC50) it was 0.28 nM. Further, the Emax in experiment [1] (setting [3]) and in experiment [2] (setting [4]) was 84% each time.
For `Cn1cnnc1Cn1c(CN2CCC(c3cccc(OCc4ccc(C#N)cc4F)n3)CC2)nc2ccc(C(=O)O)cc21` [Example 1A-20, 2-[(4-{6-[(4-cyano-2-fluorobenzyl)oxy]pyridin-2-yl}piperidin-1-yl)methyl]-1-[(4-methyl-4H-1,2,4-triazol-3-yl)methyl]-1H-benzimidazole-6-carboxylic acid], the concentration giving a half-maximal response (EC50) in experiment [1] amounted to 880 nM; in experiment [2] (read-out: Assay 1 EC50), 44 nM. In addition, the Emax in experiment [1] (setting [3]) came out at 90%; in experiment [2] (setting [4]), 81%.
Turning to `N#Cc1ccc(COc2cccc(C3CCN(Cc4nc5ccc(C(=O)O)cc5n4C[C@@H]4CCCO4)CC3)n2)c(F)c1` [Example 1A-21, 2-[(4-{6-[(4-cyano-2-fluorobenzyl)oxy]pyridin-2-yl}piperidin-1-yl)methyl]-1-[(2S)-tetrahydrofuran-2-ylmethyl]-1H-benzimidazole-6-carboxylic acid], the results for the EC50 in experiment [1] and in experiment [2] (read-out: Assay 1 EC50) were 75 nM and 4.9 nM, respectively. In addition, the maximal effect (Emax) stood at 83% in experiment [1] (setting [3]) and 77% in experiment [2] (setting [4]).
Regarding `CO[C@@H]1CCC[C@H]1n1c(CN2CCC(c3cccc(OCc4ccc(Cl)cc4F)n3)CC2)nc2ccc(C(=O)O)cc21` [Example 1A-27, 2-[(4-{6-[(4-chloro-2-fluorobenzyl)oxy]pyridin-2-yl}piperidin-1-yl)methyl]-1-[(1R,2R)-2-methoxycyclopentyl]-1H-benzimidazole-6-carboxylic acid], the EC50 amounted to 1400 nM in experiment [1] and 190 nM in experiment [2] (read-out: Assay 1 EC50). Moreover, the maximal effect (Emax) in experiment [1] (setting [3]) was found to be 47%; in experiment [2] (setting [4]) it was 91%.
For `CO[C@H]1C[C@@H](Cn2c(CN3CCC(c4cccc(OCc5ccc(Cl)cc5F)n4)CC3)nc3ccc(C(=O)O)cc32)C1` [Example 1A-28, 2-[(4-{6-[(4-chloro-2-fluorobenzyl)oxy]pyridin-2-yl}piperidin-1-yl)methyl]-1-[(cis-3-methoxycyclobutyl)methyl]-1H-benzimidazole-6-carboxylic acid], the EC50 came to 7700 nM in experiment [1] and 300 nM in experiment [2] (Assay 1 EC50 (nM)). The values for the maximal response (Emax) in experiment [1] (setting [3]) and in experiment [2] (setting [4]) were 100% and 92%, respectively.
Take `COC[C@@H]1C[C@H]1Cn1c(CN2CCC(c3cccc(OCc4ccc(Cl)cc4F)n3)CC2)nc2ccc(C(=O)O)cc21` [Example 1A-30, 2-[(4-{6-[(4-chloro-2-fluorobenzyl)oxy]pyridin-2-yl}piperidin-1-yl)methyl]-1-{[(1R,2R)-2-(methoxymethyl)cyclopropyl]methyl}-1H-benzimidazole-6-carboxylic acid]: the concentration for a half-maximal effect (EC50) in experiment [1] was 4100 nM; in experiment [2] (read-out: Assay 1 EC50) it was 150 nM. Further, the maximal effect (Emax) was found to be 110% in experiment [1] (setting [3]) and 86% in experiment [2] (setting [4]).
As to `Cn1c(CN2CCC(c3cccc(OCc4ccc(Cl)cc4F)n3)CC2)nc2ccc(C(=O)O)nc21` [Example 2A-01, 2-((4-(6-((4-Chloro-2-fluorobenzyl)oxy)pyridin-2-yl)piperidin-1-yl)methyl)-3-methyl-3H-imidazo[4,5-b]pyridine-5-carboxylic acid hydrochloride], the EC50 stood at 1800 nM in experiment [1] and 90 nM in experiment [2] (read-out: Assay 1 EC50). For the same compound, the maximum response (Emax) turned out to be 89% in experiment [1] and 76% in experiment [2] (read-out: Assay 1 Emax (%)).
Regarding `COCCn1c(CN2CCC(c3cccc(OCc4ccc(Cl)cc4F)n3)CC2)nc2ncc(C(=O)O)cc21` [Example 2A-02, 2-((4-(6-((4-Chloro-2-fluorobenzyl)oxy)pyridin-2-yl)piperidin-1-yl)methyl)-1-(2-methoxyethyl)-1H-imidazo[4,5-b]pyridine-6-carboxylic acid hydrochloride], the EC50 in experiment [1] came to 110 nM; in experiment [2] (read-out: Assay 1 EC50) it was 7.9 nM. The Emax in experiment [1] (setting [3]) stood at 89%; in experiment [2] (setting [4]), 95%.
